In patent US7645740B2, “Peptide sequence found in Laminin 5 for treating skin impairments” (Laboratoires d'Anjou Centre National de la Recherche …, priority 2004, dated 2010):

Legend:
[1] = system: NHK-old (keratinocytes from elderly individuals); test: Cell adhesion of NHK-old to immobilized peptide; type: cell-based, human; details: 0 to 5 micrograms per well, 1 hour 37° C.
Protocol: Dose-dependent cell adhesion of NHK-10 years versus NHK-71 years (A) and NHK-11 years versus NHK-60 years (B) peptides TALRIRATYHEY. The peptides were immobilized in 96-well plates at the concentrations given on the abscissa. 3.5×10^4 (A) cells and 4.3×10^4 (B) cells were deposited in each well and plates were incubated at 37° C. for 1 hour. After washing, attached cells were fixed and cell adhesion was measured as described in the methodology section (C). Cells were observed by phase contrast microscopy then photographed. Bar=50 μm.
In order to obtain keratinocytes originating from biopsies taken from young and old individuals and taken from the same anatomical site, the inventors conducted a study of facial skin biopsies. The area of the face situated behind the ears was chosen in order to study only intrinsic aging and to overcome the effects of photo-induced aging. Surgery waste from cosmetic surgery (face lifts) in older individuals and surgery waste from detached ears in young children was collected. It is essential to use biopsies collected on the same day as surgery was performed in order to quickly place the epidermal keratinocytes in culture. Cells from biopsies on elderly individuals (60, 63 and 71 years) and young individuals (8, 10 and 11 years) were used for this study. The keratinocytes were obtained by means of the technique described by Boyce and Ham, 1985. […]

A431 cells = test: Cell proliferation test (XTT), A431; type: cell-based; details: A431, peptide 0.5% and 1%, serum-free medium, 5th hour
Protocol: A431 cells were seeded in 96-well plates at a rate of 10,000 cells per well. After 24 hours, the culture medium was removed and replaced with serum-free medium containing the peptide quantities given in the graphs and reagent XTT. The plates were then placed in the incubator at 37° C. and absorbance readings were taken at 1 h, 2 h, 3 h, 4 h and 5 h. Peptide-free controls were carried out on the same plate.
The effect of the peptide on cell proliferation was analysed with the aid of a calorimetric test (Cell Proliferation Kit XTT, Roche Diagnostics, Meylan, France) on the cells use for the cell adhesion test, i.e. HT1080, A431, HBL100 cells and normal human keratinocytes from young and elderly individuals.
The chemical reaction used in the test is based on the production of NADPH by living cells, leading to the reduction of yellow tetrazolium XTT salts to orange formazan salts. Absorbance was measured at 490 nm using an ELISA plate reader. […] After 24 hours in culture at 37° C. with 5% CO2, the culture medium was removed and replaced with serum-free medium containing the peptide quantities given in the graphs and the test reagent. The plates were then placed in the incubator at 37° C. and absorbance readings were taken at 1 h, 2 h, 3 h, 4 h and 5 h. […] In this case, cell viability was calculated according to the following formula: % viability=(Abs. Cells with peptide/Abs. Control cells)×100.

NHKs = test: Effect of the peptide in soluble form on keratinocyte behaviour in culture; type: cell-based, human
Protocol: NHKs were seeded in 12-well plates at a rate of 5,000 cells per well. After 24 hours, the culture medium was removed and replaced with new medium containing 5%, 2.5%, 1.25%, 0.6% and 0.3% peptide (B—F). A peptide-free control was carried. The plates were then placed in the incubator at 37° C. for 48 hours. Observations were made with an Axiovert 40 Zeiss microscope. Bar=50 μm
Observation at higher magnification of the cell colonies described in FIG. 6 using an Axiovert 40 Zeiss microscope equipped with a PlasDisc interferential block. Bar=50 μm
Keratinocytes were seeded in 12-well plates (Costar) at a rate of 5,000 cells per well in KBM-2 medium. After 24 hours in culture at 37° C. with 5% CO2, the culture medium was removed and replaced with KBM-2 medium containing the peptide quantities given in the figures (a peptide-free control was also carried out). After 24 hours in culture, the same quantity of peptide was added to the culture medium and the experiment was stopped after a further 24 hours in culture. Microscope analyse was carried out without preliminary fixation using an Axiovert 40 Zeiss microscope coupled to a Coolsnap camera (Roper Scientific, Evry, France).

Sequence: TALRIRATYGEY (Human laminin 5) [Peptide 1]
- cell adhesion to immobilized peptide [1]: triggered dose-dependent cell adhesion
- mean increase in cell proliferation compared to the control (A431 cells): 8%
- cell morphology vs control cells (NHKs; NHKs cultured with the peptide, higher magnification (FIG. 12)): no morphological difference
- effect of peptide added to culture medium on colony formation (NHKs; NHKs, 5%, 2.5%, 1.25%, 0.6% and 0.3% peptide in medium, 48 hours, vs peptide-free control): faster formation of cohesive colonies
